# Results: a melting point compilation (Tetko et al.; mined from patent text by program, amines drawn as free bases though some values may be those of a salt)
row,Compound,melting point [°C]
1,CCOC(=O)COc1c(C)cc(C(O)(C(F)(F)F)C(F)(F)F)cc1C,99 to 101
2,C[C@@H]1N(C)C(C)(C)CO[C@@]1(O)c1ccc(Cl)cc1,167 to 169
3,O=C(N[C@H](Cc1ccccc1)[C@H](O)C(=O)O)c1ccccc1,172 to 173
4,Nc1ncc2c(n1)-c1ccccc1C(c1ccccc1)=NC2,201 to 205
5,CC(=O)Nc1ccc(Cn2cnc3c(Cl)ncnc32)cc1,240 to 242
6,CN1CCC(c2c[nH]c3ccc(C(=O)c4ccc(Cl)cc4)cc23)CC1,133
7,CCOC(=O)c1ncc2[nH]c3ccc(-c4ccccc4)cc3c2c1C,241 to 242
8,O=c1[nH]c2cc(Cl)ccc2c(O)c1-c1cccc(Cc2ccccc2)c1,304 to 306
9,Cc1cc(C)nc(COc2ccc3c(c2)c(SC(C)(C)C)c(CC(C)(C)C(=O)O)n3Cc2ccc(Cl)cc2)n1,213 to 215
10,NS(=O)(=O)Oc1ccc(-c2ccccc2)cc1,166 to 168
11,CC(C)C[C@H](NC(=O)OCc1ccccn1)C(=O)N[C@@H](C(C)C)[C@H](O)c1c(-c2ccccc2)c1=O,52 to 59
12,Oc1ccc(-c2noc3c(Br)cc(O)cc23)cc1,267 to 270
13,Cc1ccc(C(=O)c2cc(-c3ccc(S(C)(=O)=O)cc3)c(N3CCOCC3)s2)cc1,189
14,CCc1cc(CCCOc2c(C)cc(-c3noc(C)n3)cc2C)on1,85 to 86
15,Cc1cc(-c2nc(CCl)co2)sc1Br,71 to 72
16,COc1cc(C(=O)c2nc(NC(C)=O)c3ccccn23)ccc1[N+](=O)[O-],256
17,Oc1ccc(-c2c3ccccc3cc3sc4ccccc4c23)cc1I,125 to 128
18,Cc1nc(N2CCN(Cc3ccc(C(F)(F)F)cc3)C2=O)sc1-c1ccno1,153 to 154
19,O=C1c2ccccc2C(=O)N1c1ccc(Cl)c2c1CC(CO)O2 (stereo not drawn),181 to 183
20,O=C1NCc2ccc(OCCCCN3CCN(c4cccc(Cl)c4Cl)CC3)nc2N1,166 to 167
21,CC(C)c1nn(Cc2ccc(Cl)cc2Cl)cc1CCCO,68 to 69
22,COc1cc(OC)c(-c2csc(NC(=O)c3cc4ccccc4[nH]3)n2)c(OC)n1,285 to 287
23,O=C(O)c1ccc(SC(Cn2ccnc2)c2cccnc2)cc1 (stereo not drawn),80 to 83
24,N#Cc1c(N)oc2ccc(Cl)cc2c1=O,340
25,COc1cc2ncnc(N3CCN(C(=O)NCc4ccc(Br)cc4)CC3)c2cc1OC,211 to 212
26,CCOC(=O)c1ccc(C=C(C)C)c(OC)c1,42

row,Compound,melting point [°C]
1,O=C1C=C(CO)C(=O)N1,104 to 106
2,CCOC(=O)CCc1cc(OCC(=O)NNC(C)=O)nn1Cc1ccc(Cl)cc1Cl,167 to 170
3,CC(=O)OCC1CCC2C3CCC4=CC(=O)CCC4(C)C3CCC12C (stereo not drawn),141 to 142
4,CCN(CC)CCOc1ccc([N+](=O)[O-])cc1NC(C)=O,117
5,CS(=O)(=O)Nc1cc2oc(C(N)=O)cc(=O)c2cc1Oc1ccccc1,> 250
6,Cn1cnc(COc2nn3c(-c4ccc(F)cc4F)nnc3cc2C2(C)CCCCC2)n1,156
7,COc1ccc(C(=O)Nc2c(Cl)cncc2Cl)c2c1OCC2CC(=O)NCc1ccccc1Cl (stereo not drawn),288 to 289
8,COc1ccc(C2CC3(C)C(C=CC3(C)O)C3CCC4=CC(=O)CCC4C23)cc1 (stereo not drawn),192
9,COc1cc2ncnc(N3CCc4cc(OCc5ccccc5)ccc43)c2cc1OC,181 to 182
10,O=c1[nH]nc(-c2ccccc2)c(-c2ccccc2)c1-c1ccccc1,290 to 292
11,CCCCCc1ccc(-c2ccc(OCCCC)c(N)c2)cc1,38
12,CCCCCCCCCCCCCCc1ccc(C(=O)OCC)[nH]1,60 to 63
13,O[C@@H]1CCc2ccc(F)cc2C1,59 to 61
14,CCCCCCCNC(=O)Nc1ccccc1C(=O)NCCCC1CCN(C(c2ccccc2)c2ccccc2)CC1,123 to 124
15,CC(C)(C)c1cc(C=O)c(O)c(S(=O)(=O)CCl)c1,128 to 129
16,CC(=O)OCCN1CCNC1=Nc1ccccc1N1CCOCC1,89 to 91
17,O=C(O)CN(Cc1ccccc1)C(=O)CCc1nc2c(F)c(F)cc(F)c2s1,144 to 146
18,c1ccc(OCc2ccsc2)cc1,49 to 50
19,COc1ccc(C2=NNS(=O)(=O)Cc3cc4nsnc4cc32)cc1,225 to 227
20,Clc1cccc(Cl)c1C=Nc1c2c(nc3ccccc13)CCCC2,200 to 202
21,CC(=O)Nc1c(C)cc(OC(C)=O)c(C)c1C,174 to 175
22,CCCC(CCC)n1c(CC)nc2c1C(=O)N(C)CN2c1ccc(Cl)cc1Cl,117 to 118
23,O=C(/C=C/[C@H]1CC[C@@H]2OC(=O)C[C@@H]21)COc1ccccc1,91
24,OCCOc1cccc2c1OCO2,56 to 57
25,CC(Oc1ncn(-c2cccc(Br)c2)n1)C(=O)O (stereo not drawn),198 to 200
26,CCN(CC)C(=O)n1ccc(Sc2cccc(C)c2)n1,96 to 98

row,Compound,melting point [°C]
1,COc1cc2c(Nc3ccc(Cl)cc3F)ncnc2cc1OCc1ccnc(Br)c1,210 to 212
2,COc1ccc([N+](=O)[O-])c(N2CCCC2)c1,46 to 48.5
3,CCOC(=O)c1nnc2ccc(I)cc2c1O,242 to 244
4,Cc1cn(-c2ccc(NC(=O)c3ccc(Cl)c(C#Cc4ccc(NC5CC5)nn4)c3)cc2C(F)(F)F)cn1,150 to 152
5,CCCc1nc2c(N)nc3cc(Cl)ccc3c2s1,159 to 160
6,OC1Cc2ccccc2Sc2cc(F)c(Cl)cc21 (stereo not drawn),69 to 71
7,Cc1ccc2nc(N3CCN(c4c(Cl)cncc4Cl)CC3)[nH]c2c1,251 to 254
8,Cn1ccnc1-c1ccc(C(=O)CNC(=O)[C@H](Cc2ccccn2)NC(=O)OC(C)(C)C)cc1,120 to 124
9,CC(C)OC(=O)Cc1ccc2c(c1)C(=O)c1ccccc1CO2,67 to 68.5
10,CC1(c2ccccc2)OCC(OCc2ccccc2)CO1 (stereo not drawn),87 to 88
11,Clc1ccc2sc(=Nc3ccccc3)sc2c1,71 to 73
12,O=C1OCCN1CCO,32 to 33
13,CCC1CC2C3CCC4=CC(=O)CCC4C3CCC2(C)C1OC(=O)CCl (stereo not drawn),135 to 136
14,Clc1cccc2c1CCCC2c1c[nH]cn1 (stereo not drawn),165 to 169
15,COc1ccc(C2COc3cc(OC(C)=O)c(OC(C)=O)cc3C2)cc1 (stereo not drawn),104
16,Cc1cc(-n2ccnc2)c2cccc(O)c2n1,192 to 196
17,O=C(Nc1cccnc1)N1CCc2cc(I)c(Cl)cc21,> 200
18,CNC(=O)c1cccc(NC(=O)Cc2cccc(Br)c2)c1,176 to 178
19,CCOc1nn(Cc2ccc(OCc3cccc(-c4ccccc4)n3)cc2)cc1CCC(=O)O,95 to 96
20,COC(=O)CCC(C)C1CCC2C3=CC=C4C(C)(C)C(O)CCC4(C)C3CCC21C (stereo not drawn),124 to 128
21,Cn1cccc1C(=O)c1sc(Nc2ccc3[nH]cnc3c2)nc1N,284 to 285
22,CCc1nc(=O)c(CCC(=O)O)c(C)n1Cc1ccc(-c2ccccc2-c2nnn[nH]2)cc1,317 to 322
23,CCC(C(=O)N(C)C)n1nc(-c2ccccc2)c(C)c1C (stereo not drawn),119 to 121
24,CCOC(=O)CNC(=O)c1cc(Cl)ccc1N,108 to 110
25,CCOC(=O)Nc1cc(C(C)=O)c2c(c1)N(NC(C)c1ccccc1)c1ccccc1CC2 (stereo not drawn),144 to 152
26,N#Cc1cc(-c2nc3cncnc3s2)ccc1Oc1cccc(F)c1,189 to 190

row,Compound,melting point [°C]
1,COC(=O)[C@@H]1CSCN1S(=O)(=O)c1ccc(Cl)c(COc2cccc3c(-n4ccnc4)cc(C)nc23)c1Cl,60
2,CC(C)OC(=O)c1cc(-n2c(=O)[nH]c3c(c2=O)CCCC3)ccc1Cl,205 to 207
3,N=c1[nH]c2ccncc2c2nc(-c3ccco3)nn12,320 to 321
4,"COC(=O)C(Cc1ccc([N+](=O)[O-])cc1)NC(=O)NCc1cccc(Oc2ccccc2)c1 (single isomer, unassigned; (+))",112 to 114
5,COC(=O)c1ccc(CN2C(=O)C3(COc4cc5c(cc43)OCCO5)c3ccccc32)o1 (stereo not drawn),88 to 92
6,CCOC(=O)/C=C/c1c(-c2ccc(F)cc2)n(CCF)c(=O)c2ccccc12,136 to 137
7,CC1SC(c2cccnc2)N(C2CCCCC2)C1=O (stereo not drawn),120 to 125
8,CC(C)OC(=O)C1C(=S)NCC1C (stereo not drawn),41 to 44
9,O=S(=O)(Nc1cccc(F)c1)c1cc(S(=O)(=O)Nc2cccc(F)c2)c2cc(O)ccc2c1,110 to 112
10,COCCOc1ccc(CCl)c(Oc2ncc(C(F)(F)F)cc2Cl)c1,108 to 111
11,O=C(O)Cc1ccn(-c2ccc(F)cc2)c1,100 to 102
12,O=CNc1ccc(-c2ccncc2)cc1,188 to 190
13,CC(O)(c1nc2ccc([N+](=O)[O-])cc2[nH]1)C(F)(F)F (stereo not drawn),73 to 75
14,CCSc1cc(C)nc(SCC)c1NC(=O)CCCCSc1nc2ccccc2o1,122 to 123
15,CN1CCC(=C2c3ccccc3COc3ccc(Br)cc32)CC1,131 to 132
16,CC(C)(C)OC(=O)NC1Cc2cccc3[nH]c(=O)n(c23)C1 (stereo not drawn),235 to 236
17,O=[N+]([O-])c1ccc(Sc2cccc3cnccc23)cc1NCc1ccccc1,153 to 154
18,CC(C)CNC(=O)N(CCCl)N=O,51
19,COC(=O)c1ccccc1S(=O)(=O)NC(=O)n1nc(SC)n(C)c1=O,184
20,CCOC(=O)CC(=O)CC(O)/C=C/c1c(-c2ccccc2)c2ccccc2c(=O)n1C (stereo not drawn),148 to 149
21,Cn1nc2ccccc2c1C(=O)NC1CCN(Cc2ccccc2)CC1,167 to 169
22,Oc1ccc(CN(Cc2ccc(O)c3ncccc23)Cc2ccc(O)c3ncccc23)c2cccnc12,175 to 178
23,CS(=O)(=O)O[C@H](COC(=O)CCl)[C@H](NC(=O)OCc1ccccc1)C(N)=O,140 to 142
24,CC(CS)C(=O)Nc1cccc(C(=O)O)n1 (stereo not drawn),178 to 179
25,COc1cc(CCNCc2ccccc2)c(CC(=O)O)cc1OC,213 to 214
